Data from the supplement of paper PMC11208160.

experiment: recombinant barcode read abundance after kanamycin selection (control-corrected) (log10(CPM+1)); higher = more efficient recombination; sequences stand for … in AGTGCAGAGAAAATCGGCCAGTTTTCTCTGCCTGCAGTCCGCATGCCGT…AGATTTATGCAGCGGACTGCCTTTCTCCCAAAGTGATAAACCGGACAGTATCATGGACCGGTTTTCCCGGTAATCCGTATTTGCAAGGTTGGTTTCACT; site = the 11-nt target
Procedure: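 Pooled E. coli target-specificity screen for the IS621 bridge recombinase. Each library plasmid pairs an 11-nt target (CT core) with a bridge RNA whose target-binding loop (9-nt LTG + 4-nt RTG) is reprogrammed; the rest of the 177-nt WT IS621 bridge RNA scaffold is fixed. The plasmid is co-electroporated with a WT donor plasmid; recombinase is induced with 0.1 mM IPTG and recombinants are selected on kanamycin. Recombinant barcodes are sequenced, converted to CPM, averaged over two biological replicates and corrected by the unselected control CPM. Molecule = full bridge RNA written as DNA: LTG = specificity nt 1-9, RTG = reverse complement of specificity nt 8-11, in the WT scaffold.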
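Note: IS621 recombinase and bridge RNA in Escherichia coli cells.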

Point of comparison: “ACGAGTACTTGGGTTCTAACCTGTTGCGG (site ACGAGTACTCA)”, “recombinant barcode read abundance (log10)” value 0.392. Against it:
- ACGACTGCTTGGGTTCTAACCTGTTGCCT (site ACGACTGCTAG) — higher, 0.738
- ACGACTGCTTGGGTTCTAACCTGTTGCCT (site ACGACTTCTAG) — within 0.2 log units, 0.247
- ACGAGAGCTTGGGTTCTAACCTGTTGCCT (site ACAAGAGCTAG) — higher, 0.92
- ACGAGAGCTTGGGTTCTAACCTGTTGCCT (site ACCAGAGCTAG) — lower, 0.0692
- ACGAGAGCTTGGGTTCTAACCTGTTGCCT (site ACGAGAGCTAG) — higher, 1.11
- ACGAGAGCTTGGGTTCTAACCTGTTGCCT (site ACTAGAGCTAG) — lower, 0.135
- ACGAGCCCTTGGGTTCTAACCTGTTGCCA (site ACGAGCCCTTG) — higher, 0.666
- ACGAGCCCTTGGGTTCTAACCTGTTGCCA (site ACGCACCCTTG) — lower, 0.151
- ACGAGGACTTGGGTTCTAACCTGTTGCCG (site ACGAAGACTCG) — within 0.2 log units, 0.232
- ACGAGGACTTGGGTTCTAACCTGTTGCCG (site ACGAGGACTCG) — higher, 1.09
- ACGAGTACTTGGGTTCTAACCTGTTGCGG (site ACGAGTACTCC) — higher, 1.82
- ACGATTCCTTGGGTTCTAACCTGTTGCTT (site ACGAATCCTAA) — lower, 0.0108
- ACGATTCCTTGGGTTCTAACCTGTTGCTT (site ACGACTCCTAA) — lower, 0.142
- ACGATTCCTTGGGTTCTAACCTGTTGCTT (site ACGAGTCCTAA) — lower, 0.0586
- ACGATTCCTTGGGTTCTAACCTGTTGCTT (site ACGATTCCTAA) — lower, 0.0242
- ACGCAGTCTTGGGTTCTAACCTGTTGCCT (site ACGCAATCTAG) — within 0.2 log units, 0.313
- ACGCAGTCTTGGGTTCTAACCTGTTGCCT (site ACGCACTCTAG) — lower, 0.0573
- ACGCAGTCTTGGGTTCTAACCTGTTGCCT (site ACGCAGTCTAG) — higher, 0.798
- ACGCAGTCTTGGGTTCTAACCTGTTGCCT (site ACGCATTCTAG) — lower, 0.129
- ACGGACCCTTGGGTTCTAACCTGTTGCAT (site ACGAACCCTAG) — within 0.2 log units, 0.225
- ACGGACCCTTGGGTTCTAACCTGTTGCAT (site ACGGACCCTAT) — higher, 2.82
- ACGGAGACTTGGGTTCTAACCTGTTGCAT (site ACGGAGACTAT) — higher, 2.78
- ACGGAGACTTGGGTTCTAACCTGTTGCAT (site GTACTACCTCG) — lower, 0.108
- ACGGCTCCTTGGGTTCTAACCTGTTGCTG (site ACGACTCCTCA) — lower, 0.0439
- ACGGCTCCTTGGGTTCTAACCTGTTGCTG (site ACGCCTCCTCA) — lower, 0.116
- ACGGCTCCTTGGGTTCTAACCTGTTGCTG (site ACGGCTCCTCA) — higher, 1.35
- ACGGCTCCTTGGGTTCTAACCTGTTGCTG (site ACGTCTCCTCA) — lower, 0.123
- ACGGGGCCTTGGGTTCTAACCTGTTGCCG (site ACGGGGCCTCG) — higher, 1.88
- ACGGGGCCTTGGGTTCTAACCTGTTGCCG (site GTATATACTAA) — lower, 0.116
- ACGGGTACTTGGGTTCTAACCTGTTGCCA (site AAGGGTTCTTG) — within 0.2 log units, 0.355
- ACGGGTACTTGGGTTCTAACCTGTTGCCA (site ACGGGTACTTG) — higher, 1.02
- ACGGTTGCTTGGGTTCTAACCTGTTGCCT (site ACGGGTGCTAG) — within 0.2 log units, 0.434
- ACGGTTGCTTGGGTTCTAACCTGTTGCCT (site ACGGTTGCTAG) — higher, 2.22
- ACGTAATCTTGGGTTCTAACCTGTTGCTT (site ACGTAATCTAA) — within 0.2 log units, 0.207
- ACGTAATCTTGGGTTCTAACCTGTTGCTT (site CGGTAATCTAA) — within 0.2 log units, 0.246
- ACGTGAACTTGGGTTCTAACCTGTTGCCT (site ACATGAACTAG) — within 0.2 log units, 0.532
- ACGTGAACTTGGGTTCTAACCTGTTGCCT (site ACCTGAACTAG) — lower, 0.0714
- ACGTGAACTTGGGTTCTAACCTGTTGCCT (site ACGTGAACTAG) — within 0.2 log units, 0.416
- ACGTGAACTTGGGTTCTAACCTGTTGCCT (site ACTTGAACTAG) — lower, 0.0355
- ACGTGTCCTTGGGTTCTAACCTGTTGCGG (site ACGTGTCCTCC) — higher, 1.88
- ACGTGTCCTTGGGTTCTAACCTGTTGCGG (site GGAGAGACTAT) — within 0.2 log units, 0.242
- ACGTTGTCTTGGGTTCTAACCTGTTGCCT (site ACATTGTCTAG) — higher, 1.24
- ACGTTGTCTTGGGTTCTAACCTGTTGCCT (site ACCTTGTCTAG) — lower, 0.0624
- ACGTTGTCTTGGGTTCTAACCTGTTGCCT (site ACGTTGTCTAG) — higher, 0.767
- ACGTTGTCTTGGGTTCTAACCTGTTGCCT (site ACTTTGTCTAG) — lower, 0.0891
- ACTAAGACTTGGGTTCTAACCTGTTGCTG (site ACTAAGACTCA) — higher, 1.96
- ACTAAGACTTGGGTTCTAACCTGTTGCTG (site AGTAAGACTTA) — lower, 0.0302
- ACTACTCCTTGGGTTCTAACCTGTTGCGA (site ACTACTCCTTC) — higher, 0.93
- ACTACTCCTTGGGTTCTAACCTGTTGCGA (site ACTAGTCCTTG) — lower, 0.119
- ACTAGGACTTGGGTTCTAACCTGTTGCGG (site ACTAGGACTAC) — lower, 0.0821
- ACTAGGACTTGGGTTCTAACCTGTTGCGG (site ACTAGGACTCC) — higher, 2.93
- ACTAGGACTTGGGTTCTAACCTGTTGCGG (site ACTAGGACTGC) — within 0.2 log units, 0.444
- ACTAGGACTTGGGTTCTAACCTGTTGCGG (site ACTAGGACTTC) — within 0.2 log units, 0.302
- ACTAGTCCTTGGGTTCTAACCTGTTGCAT (site ACTAGTCCTAA) — within 0.2 log units, 0.239
- ACTAGTCCTTGGGTTCTAACCTGTTGCAT (site ACTAGTCCTAC) — lower, 0.0726
- ACTAGTCCTTGGGTTCTAACCTGTTGCAT (site ACTAGTCCTAG) — lower, 0.0896
- ACTAGTCCTTGGGTTCTAACCTGTTGCAT (site ACTAGTCCTAT) — higher, 1.29
- ACTAGTCCTTGGGTTCTAACCTGTTGCGT (site ACTAGTCCTAA) — lower, 0.0427
- ACTAGTCCTTGGGTTCTAACCTGTTGCGT (site ACTAGTCCTAC) — higher, 2.25
- ACTAGTCCTTGGGTTCTAACCTGTTGCGT (site ACTAGTCCTAG) — lower, 0.133
- ACTAGTCCTTGGGTTCTAACCTGTTGCGT (site ACTAGTCCTAT) — higher, 0.894
- ACTATAACTTGGGTTCTAACCTGTTGCTT (site ACTATAACTAA) — within 0.2 log units, 0.401
- ACTATAACTTGGGTTCTAACCTGTTGCTT (site ACTCTAACTAA) — within 0.2 log units, 0.535
- ACTATAACTTGGGTTCTAACCTGTTGCTT (site ACTGTAACTAA) — lower, 0.125
- ACTATAACTTGGGTTCTAACCTGTTGCTT (site ACTTTAACTAA) — lower, 0.0487
- ACTCACACTTGGGTTCTAACCTGTTGCTT (site ACTCACACTAA) — higher, 1.06
- ACTCACACTTGGGTTCTAACCTGTTGCTT (site GGAGCTCCTCG) — lower, 0.00954
- ACTCAGACTTGGGTTCTAACCTGTTGCAC (site ACTCAGACTGT) — higher, 1.9
- ACTCAGACTTGGGTTCTAACCTGTTGCAC (site GGAGGTCCTCG) — within 0.2 log units, 0.222
- ACTCCAGCTTGGGTTCTAACCTGTTGCCT (site ACTCCAGCTAG) — higher, 1.79
- ACTCCAGCTTGGGTTCTAACCTGTTGCCT (site TAGTTTACTCT) — lower, 0.0793
- ACTCGTTCTTGGGTTCTAACCTGTTGCTT (site ACTCGTTCTAA) — within 0.2 log units, 0.326
- ACTCGTTCTTGGGTTCTAACCTGTTGCTT (site GCTAGTTCTAA) — lower, 0.0673
- ACTCTACCTTGGGTTCTAACCTGTTGCTA (site ACCCTCCCTTA) — lower, 0.0533
- ACTCTACCTTGGGTTCTAACCTGTTGCTA (site ACTCTACCTTA) — higher, 1.12
- ACTCTAGCTTGGGTTCTAACCTGTTGCTC (site ACTCTAGCTGA) — higher, 1.05
- ACTCTAGCTTGGGTTCTAACCTGTTGCTC (site GCTCTAGCTTA) — within 0.2 log units, 0.265
- ACTCTGTCTTGGGTTCTAACCTGTTGCTT (site ACCCTATCTAA) — lower, 0.124
- ACTCTGTCTTGGGTTCTAACCTGTTGCTT (site ACTCTGTCTAA) — higher, 1.86
- ACTGATGCTTGGGTTCTAACCTGTTGCCT (site ACTGATACTAG) — higher, 1.08
- ACTGATGCTTGGGTTCTAACCTGTTGCCT (site ACTGATCCTAG) — lower, 0.0449
